Test results: patent US7498029B2, “Photoimmunotherapies for cancer using combination therapies” (The General Hospital Corporation, priority 2001, dated 2009)
“Also recorded” adds a separate entry of the source.

Tests used:
MAPK/ERK = assay: EGF-induced MAPK/ERK phosphorylation, Western blot in OVCAR-5 cells; assay type: cell-based, human
Experimental: (§1) Twenty-four hours after photodynamic treatment as described above, OVCAR 5 cells in the groups to be stimulated with EGF were incubated for 15 min with 10 ng/ml EGF in prewarmed culture medium. The groups that were not stimulated with EGF only received prewarmed culture medium. After the 15 minute incubation, cells were kept on ice and cell lysates were collected in RIPA buffer (containing 0.1% SDS and 1% NP-40). After protein determination by a modified Lowry assay (Biorad, Hercules, Calif.), the proteins were run on SDS-PAGE, transferred to a polyvinylidene diflouride (PVDF) membrane (Immobilon-P, Millipore, Bedford, Mass.) and probed with the first antibody. To detect the phosphorylation of the EGFR, the anti-phosphotyrosine antibody 4G10 (New England Biolabs; Beverly, Mass.) was used. A secondary goat anti-mouse antibody, coupled to horseradish peroxidase (Biorad), was used in combination with a chemiluminescence kit (Amersham, Arlington Heights, Ill.) to visualize the specific bands. Western blots were reprobed with anti-actin (Santa Cruz Biotechnology, Santa Cruz, Calif.) to control for equal loading.
(§2) Two important pathways which are regulated by EGFR are the PI3K-Akt/PKB-1 and the Ras-MAPK/ERK pathway. These signaling molecules are implicated in a variety oncogenic pathways. […]

[1] = Fluorescence decay and relative fluorescence quantum yield; assay type: physicochemical; settings: 50% DMSO/50% aqueous solution
Experimental: In order to assess how conjugation to the antibody affected the ability of BPD to generate phototoxic species, relative fluorescence quantum yields and fluorescence decay signals for free BPD and for the various BPD PIC preparations were measured. Although fluorescence is a photophysical property of the singlet excited state of a photosensitizer, fluorescence quantum yields and decay times generally correlate with a photosensitizer's ability to generate phototoxic species. This correlation stems from the fact that a photosensitizer's phototoxic quantum yield usually correlates with its triplet quantum yield. […]
Fluorescence properties were measured in 50% DMSO/50% aqueous solutions in order to overcome the tendency of BPD to aggregate in a purely aqueous solution. Relative fluorescence quantum yields for free BPD and for various PIC samples with varying BPD:antibody molar loading ratios were calculated from the ratios of the slopes of fluorescence emission intensity versus absorbance plots. The fluorescence emission intensity versus absorbance plot for a given sample was generated by measuring the emission intensities of a series of dilute solutions prepared from a concentrated stock solution of the sample. […] Fluorescence emission intensity was measured as the area under the fluorescence emission peak in the 650 to 800 nm range. […]

CHO-ERBB2 cells = assay: PDT/PIT phototoxicity, MTT assay, CHO-ERBB2 cells; assay type: cell-based; settings: 140 nM, light dose of 2 J/cm^2, MTT 24 hours after illumination
Experimental: (§3) This light was focused to a spot of 3.5 cm diameter, which corresponded to a power density of circa 40 mW/cm^2.
(§4) To determine the survival fraction of cells after treatment, the 3-(4,5-dimethylthiazol-2-yl)-2,5-diphenyltetrazolium bromide (“MTT”) assay, which measured mitochondrial dehydrogenase activity, was used. Cells were incubated with 0.5 mg/ml MTT for 1 hour to measure its reduction by mitochondrial dehydrogenases.

Akt-1 = assay: EGF-induced Akt-1 phosphorylation, Western blot in OVCAR-5 cells; assay type: cell-based, human
Experimental: as §1, §2

NIH:OVCAR-5 cells [2] = assay: Tumoricidal response, intraperitoneal ovarian carcinoma xenograft, tumor burden at day 21; settings: for Tumor Burden: necropsy day 21; for Survival Fraction: tumor burden relative to no treatment
Experimental: NIH:OVCAR-5 cells were obtained from the Fox Chase Cancer Institute (Philadelphia, Pa.). Cells were grown in RPMI-1640 media (Mediatech Inc, Herndon, Va.) supplemented with 10% heat-inactivated fetal calf serum (GIBCO Life Technologies, Grand Island, N.Y.), and 100 U/ml penicillin and 100 μg/ml streptomycin. The cells were maintained in an incubator at 37° C. in an atmosphere of 5% CO2. At the time of NIH:OVCAR-5 cell injection, mice were given a numeric ear tag. Animals were anesthetized before the cell injection with 0.03 ml of a ketamine/xylazine mixture (ketamine, 120 mg/kg; xylazine, 15 mg/kg).
Intraperitoneal (“i.p.”) PDT in the nude mice was performed as previously described (Molpus et al., 1996a). On day 10 and 20 after tumor cell injection, mice in BPD treatment and/or control groups 2, 4, 6, and 8 were injected with 0.25 mg/kg body weight of liposomal BPD-MA i.p. 90 minutes prior to light exposure. Light was not administered to animals in groups 1, 2, 5, and 6. BPD-MA solutions were prepared immediately prior to use in sterile PBS (total of 1 ml). All work involving BPD-MA was performed in subdued lighting.
Animals which had to be illuminated were injected with 2 mL of a 0.1% intralipid solution i.p. prior to illumination to enhance light scattering. Animals were anesthetized with 0.03 ml of a ketamine/xylazine mixture (ketamine, 35 mg/ml; xylazine, 5 mg/ml). A solid state diode laser was used for illumination (BWF 690-1, B&W TEK, Newark, Del.), which delivers monochromatic light (690+/−5 nm) to overlap closely the absorption maximum of BPD-MA (690 nm), at a maximum power from the diode of 1 W. Alternatively, an argon-pumped dye laser (Coherent) was used to deliver 690 nm light i.p. via a cylindrically diffusing fiberoptic tip (8.0 mm×0.4 mm). The fiber, connected to the Argon-pumped dye laser or the solid state diode laser was introduced into the peritoneal cavity of a supine anesthetized animal via a centrally placed 22-gauge catheter traversing the abdominal cavity. A total of 20 J of light was delivered, at a fluence rate of 100-200 mw/cm^2. Of the total light energy, one fourth (5 J) was delivered to each i.p. quadrant over equivalent time periods. At the completion of the treatment, the mice were allowed to recover in an animal warmer until they awoke and resumed normal activity.
Two endpoints were studied. The first endpoint studied was short-term tumor weight. The second endpoint studied was long-term survival. In the short-term tumor weight studies, animals were sacrificed on day 21 to assess acute treatment effects. Animals were also carefully examined for the presence of distinct extra-abdominal metastasis. Representative tissue samples were examined pathologically via hematoxylin and eosin staining.
Tumoricidal response was assessed by comparing the extent of gross residual disease in treated animals to the extent of disease in untreated controls. Using the distribution pattern of the tumor in the OVCAR-5 human xenograft mouse model, which 20 was previously described (Molpus et al., 1996b), the sites where tumor was consistently present were dissected.

[3] = Body weight loss of xenograft mice; assay type: in vivo; settings: before tumor cell injection to day 21
From the text: Animals were weighed before tumor cell injection, and before sacrifice at day 21.

NIH:OVCAR-5 cells [4] = assay: Long term survival, intraperitoneal ovarian carcinoma xenograft; assay type: in vivo, mice
From the text: A different group of animals was utilized to investigate survivability. Animals with rapid tumor progression leading to uncontrollable ascites or systemic illness were sacrificed. Animals were sacrificed based on the following parameters: loss of more than 15% body weight, severe pain not relieved by analgesics, self-mutilating behavior, inability or unwillingness to eat or drink, and weight gain of more than 20% body weight. At the time of necropsy, samples were weighed and collected as previously described.

[5] = Solubility and stability in DMSO/aqueous solutions and on storage; assay type: physicochemical; settings: DMSO/aqueous solution
EGFR = target: T1, EGFR (Homo sapiens, UniProt P00533); assay: EGF-induced EGFR phosphorylation, Western blot in OVCAR 5 cells; assay type: cell-based; settings: 10 ng/ml EGF 15 min
T1 construct: endogenous in cells; host or cells: OVCAR 5 cells
Experimental: as §1

[6] = system: EGFR-overexpressing A-431 cells; assay: Phototoxicity and competition studies, MTT assay; assay type: cell-based, human; settings: incubation periods much shorter than 6 hours
Experimental: Preliminary phototoxicity studies were conducted using EGFR-overexpressing A-431 cells.
Cells were plated in 2 ml of media in 35 mm tissue culture dishes at densities such that the cells reached approximately 60 to 80% confluence at the end of a three-day growth period. Following an initial period of at least 14 to 20 hours, which allowed for cells to attach and begin dividing, incubation with PICs or free BPD was initiated by replacing the original 2 ml of media with 2 to 4 ml of medium containing PIC or free BPD. Incubations were done at 37° C. and were begun with respect to the end of the three-day growth period. At the end of the three-day growth period, the medium containing PIC or free BPD was removed. Cells were washed once with 2 ml of DPBS, and 2 ml of fresh medium was added back to each dish. Cells were then immediately irradiated with the requisite light dose. Following irradiation, cells were incubated overnight at 37° C. and then assayed for viability by the calorimetric MTT assay (Mosmann, 1983). Except for the intended light dose, care was taken to protect the cells from light exposure at all times.
The radiation source was a dye laser pumped by an argon ion laser (models CR-599 and Innova 100, respectively, Coherent Inc., Palo Alto, Calif.). […]

OVCAR-5 cells = assay: PDT/PIT phototoxicity, MTT assay, OVCAR-5 cells; assay type: cell-based, human; settings: with light, dose giving 50% survival after 24 hours, compared to control cells
Experimental: as §3, §4
The MTT assay was performed 24 and 72 hours after treatment.

[7] = no light, BPD […] i.p. days 10, 20, C225 0.5 mg i.p. days 11, 14, 17, 19
[8] = with light (20 J, 690 nm i.p.), same doses

## BPD Verteporfin
MAPK/ERK; alone, no light
  EGF-induced phosphorylation of MAPK/ERK: responded like control cells
MAPK/ERK; plus light
  EGF-induced phosphorylation of MAPK/ERK: did not have an inhibitory effect; also recorded: not by treatment with BPD plus light
[1]; emission 700 nm
  weighted-average fluorescence decay lifetime: 6.02 ns
[1]; excitation 428 nm
  relative fluorescence quantum yield: 1.00
CHO-ERBB2 cells
  viability: less than 20%
Akt-1; alone, no light
  EGF-induced phosphorylation of Akt-1: responded like control cells
Akt-1; plus light
  EGF-induced phosphorylation of Akt-1: did not have an inhibitory effect; also recorded: not by treatment with BPD plus light
NIH:OVCAR-5 cells [2]; Steel-Peckham interaction of the components in the formula, with light (hv)
  DL: 0.493
NIH:OVCAR-5 cells [2]; Steel-Peckham interaction, with light (hv)
  Effect: synergistic
NIH:OVCAR-5 cells [2]; no light
  lnSF: −0.4084
  Survival Fraction: 0.69
NIH:OVCAR-5 cells [2]; [7]
  Tumor Burden: 469 mg
NIH:OVCAR-5 cells [2]; with light
  lnSF: −0.962
  Survival Fraction: 0.38
NIH:OVCAR-5 cells [2]; [8]
  Tumor Burden: 261 mg
NIH:OVCAR-5 cells [2]; with light, day 21
  tumor burden as % of the no treatment control group: 38%
  tumor burden in the bowel mesentery: statistically significant reduction in tumor burden
[3]; [7]
  Weight Loss In Grams: 2.01 Grams
[3]; [8]
  Weight Loss In Grams: 2.14 Grams
NIH:OVCAR-5 cells [4]; comparison of survival curves, PDT and combination with light, C225 alone without
  survival compared with untreated mice: significantly longer survival rates
NIH:OVCAR-5 cells [4]; with light, 9 mice per group
  mice still alive after 6 months (180 days): 10%
NIH:OVCAR-5 cells [4]; with light, days on which 50% of the mice have died
  50% alive: 36 (CI 32-90) days
[5]
  DMSO content above which free BPD goes from predominantly aggregated to predominantly disaggregated monomeric state: > 40%
EGFR; 140 nM alone, no light
  EGF-induced EGFR phosphorylation: reacted like control cells
EGFR; 140 nM plus light
  EGF-induced EGFR phosphorylation: did not inhibit; also recorded: no inhibitory effect
[6]
  phototoxic cell killing: greater than 90%
OVCAR-5 cells
  increase in MTT activity between the 24 and 72 hours time-point: 15%
